Data reported in ChEMBL document CHEMBL4477188, “Callyazepin and (3R)-Methylazacyclodecane, Nitrogenous Macrocycles from a Callyspongia sp. Sponge” (J Nat Prod, 2016).

Experiments:
K562 = assay: Cytotoxicity against human K562 cells assessed as reduction in cell viability after 72 hrs by MTT assay; format: functional, cell-based; conditions: K562, 72 h
A549 = assay: Cytotoxicity against human A549 cells assessed as reduction in cell viability after 72 hrs by MTT assay; format: functional, cell-based; conditions: A549, 72 h
Staphylococcus aureus = assay: Antimicrobial activity against Staphylococcus aureus ATCC 6538P after 24 hrs by serial two fold dilution method; format: functional
Bacillus spizizenii = assay: Antimicrobial activity against Bacillus subtilis ATCC 6633 after 24 hrs by serial two fold dilution method; format: functional; conditions: ATCC 6633, 24 h
Micrococcus luteus = assay: Antimicrobial activity against Micrococcus luteus IFC 12708 after 24 hrs by serial two fold dilution method; format: functional; conditions: IFC 12708, 24 h
Proteus vulgaris = assay: Antimicrobial activity against Proteus vulgaris ATCC 3851 after 24 hrs by serial two fold dilution method; format: functional; conditions: ATCC 3851, 24 h
Salmonella typhimurium = assay: Antimicrobial activity against Salmonella typhimurium ATCC 14028 after 24 hrs by serial two fold dilution method; format: functional, Salmonella enterica subsp. enterica serovar Typhimurium; conditions: Salmonella enterica, ATCC 14028, 24 h
Escherichia coli = assay: Antimicrobial activity against Escherichia coli ATCC 25922 after 24 hrs by serial two fold dilution method; format: functional; conditions: ATCC 25922, 24 h

Structure (SMILES)	IC50 (K562) [µM]	IC50 (A549) [µM]	MIC (Staphylococcus aureus) [µM]	MIC (Bacillus spizizenii) [µM]	MIC (Micrococcus luteus) [µM]	MIC (Proteus vulgaris) [µM]	MIC (Salmonella typhimurium) [µM]	MIC (Escherichia coli) [µM]
C[C@@H]1CCCCCCCNC1	3.2	3.8	≥ 128	≥ 128	≥ 128	≥ 128	≥ 128	≥ 128
COc1cccc2c1C(=O)c1c(O)c3c(c(O)c1C2=O)C[C@@](O)(C(=O)CO)C[C@@H]3O[C@H]1C[C@H](N)[C@H](O)[C@H](C)O1 [DOXORUBICIN]	0.8	0.5						
COC(=O)[C@H](C)[N@@+]1(C=O)CC[C@H]2CCCCCCCCCC[C@H]2[C@@H](C)C1	7.4	3	≥ 128	≥ 128	≥ 128	≥ 128	≥ 128	≥ 128
